Data from patent US12527835B2, “Brevican-binding peptides for brain tumor imaging” (The Brigham and Women's Hospital, Inc., priority 2018, dated 2026).
pKd: −log10 of the molar value. Where a SMILES comes first, the peptide text is derived from it. Where no end group is shown, it is not given here. [ ]: non-standard residue; d: D form. Ahx = NCCCCCC(=O)O

Columns and labels:
HEK-Bcan cells [1] = assay: Flow cytometry blocking study with 50× molar excess of unlabeled peptide; format: cell-based, human; settings: fluorescein-conjugated peptide 1 μM
Method: (§1) Cells were washed once with PBS and then, treated with 1 mL of 2.5 mM EDTA to dissociate the cells. The EDTA was removed by centrifugation, and PBS supplemented with 10% FBS was added to create a single-cell suspension. All peptide stocks were dissolved in DMSO, and stored at −20° C. in the dark. Cells were incubated with each peptide (at the desired final concentration, between 1-10 μM) for 3 hrs at 37° C. in the dark under constant rotation. After incubation, cells were washed 3× with PBS with 10% FBS (by centrifugation at 7000 rpm for 3 mins each). Then, cells were resuspended in 3.7% formaldehyde for fixation, and finally washed once with PBS. Cells were evaluated for peptide uptake (mean fluorescence intensity) by flow cytometry (10,000-20,000 events).
For blocking studies, cells were dissociated as described above and resuspended in cold PBS with 10% FBS. Cells were then incubated with a 50× molar excess of unlabeled peptide for 10 mins on ice, before adding the corresponding FITC-labeled peptide at a final concentration of 1 μM and incubated for 1.5 hrs on ice. Cells were then washed with cold PBS with 10% FBS, fixed and analyzed by flow cytometry.

BT188 glioma stem cells = assay: Peptide uptake in BT188 (BΔg-high) versus BT145 (BΔg-low) glioma stem cells, fluorescence imaging; format: cell-based, human; settings: fluorescein-labeled peptides, 5 μM
From the text: FIGS. 3A-I. Peptide characterization for BΔg specificity in glioma stem cells. (a) Table summary listing the properties of 7 peptides (composed of 8 D-amino acid residues, SEQ ID NOs:3-9, in order of appearance) that were isolated from the OBOC library screen. MW=molecular weight; KD=Kyte-Doolittle scale for amino acid hydropathy (positive scores indicate […]) (Kyte and Doolittle, J. Mol. Biol. 157, 105-132 (1982)). (b) Chemical structure showing the linkage between the peptide and FITC. (c) Western blot analysis showing the level of BΔg and Bcan in human embryo kidney (HEK) cells, and Bcan-overexpressing HEK cells (HEK-Bcan). […] Each group was normalized to a no-blocking (vehicle) control. Statistics were performed using multiple t-tests, and significance was measured in comparison to each vehicle control (p<0.0001). (e) Uptake of fluorescein-labeled BTP-2, 7, 8, 9, and 10 (at 5 μM conc.) in BT188 (BΔg-high) or BT145 (BΔg-low) glioma stem cells (GSCs). Western blot analysis on the top right confirms the BΔg expression level. […] Statistics were performed using the two-way ANOVA and Tukey's Multiple Comparison test. (f) Chemical structure showing the linkage between the peptide and Cy5.5 dye. (g) Western blot analysis showing the expression of BΔg in GBM-6 cells, with negligible BΔg level in astrocytes or neural progenitor cells (NPC). (h) Graph showing the cell uptake ranking of the top 3 peptide candidates, BTP-7, 8 and 9 in GBM-6 cells as determined by flow cytometry analysis with s.d. error bars (5 μM conc.; nevents=20,000 cells; nexperiment=5). Each group is normalized to the control scramble peptide (Scr-8). Statistics were performed using the one-way ANOVA and Tukey's Multiple Comparison test (significance were measured in comparison to the Scr-8 control). (i) Bar graph showing the uptake of BTP-7, 8 and 9 in GBM-6 cells and NPC with 95% confidence interval error bars (1 μM conc.; nevents=20,000 cells). Statistics were performed using the two-way ANOVA and Sidak's Multiple Comparison test.

[2] = target: T1, recombinant BΔg protein (deglycosylated brevican) (Homo sapiens, UniProt Q96GW7); assay: Octet steady state binding affinity to recombinant BΔg
T1 construct: purchased R&D Systems 4009-BC-050
T1 sequence (Q96GW7 23-911): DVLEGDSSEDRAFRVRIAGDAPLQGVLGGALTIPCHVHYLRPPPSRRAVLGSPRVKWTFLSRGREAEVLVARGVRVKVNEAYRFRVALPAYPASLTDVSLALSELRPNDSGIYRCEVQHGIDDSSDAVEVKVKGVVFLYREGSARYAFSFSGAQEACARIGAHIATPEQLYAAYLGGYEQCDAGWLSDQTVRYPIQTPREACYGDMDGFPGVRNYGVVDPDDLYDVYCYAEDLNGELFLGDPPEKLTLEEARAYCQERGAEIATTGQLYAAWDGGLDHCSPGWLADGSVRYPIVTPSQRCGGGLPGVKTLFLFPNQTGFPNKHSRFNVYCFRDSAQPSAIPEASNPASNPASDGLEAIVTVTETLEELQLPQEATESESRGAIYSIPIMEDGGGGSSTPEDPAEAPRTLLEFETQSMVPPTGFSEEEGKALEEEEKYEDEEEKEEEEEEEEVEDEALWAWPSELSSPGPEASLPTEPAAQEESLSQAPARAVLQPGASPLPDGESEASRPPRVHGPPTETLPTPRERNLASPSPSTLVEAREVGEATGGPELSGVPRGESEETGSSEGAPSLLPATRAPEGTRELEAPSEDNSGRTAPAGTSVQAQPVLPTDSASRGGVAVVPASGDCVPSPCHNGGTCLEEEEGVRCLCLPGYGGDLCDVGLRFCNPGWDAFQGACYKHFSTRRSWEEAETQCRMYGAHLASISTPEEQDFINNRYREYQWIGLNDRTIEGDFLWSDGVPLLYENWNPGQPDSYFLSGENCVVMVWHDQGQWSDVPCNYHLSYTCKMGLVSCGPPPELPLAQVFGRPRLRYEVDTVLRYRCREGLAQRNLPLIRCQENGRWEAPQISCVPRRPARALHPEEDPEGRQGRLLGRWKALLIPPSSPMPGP
Method: A ForteBio OctetRed384 instrument was used to study the binding kinetics of each peptide to recombinant human brevican (re-suspended in PBS and 0.1 mM EDTA, pH 6.8). The brevican protein was deglycosylated prior to experimental use in water+0.05% tween, PI, sialidase, 0-glycosidase, N-glycosidase in sodium acetate [200 mM], NaCl [250 mM], Tris-HCl [200 mM], pH 7.5.) in the presence of protease inhibitor overnight at 4° C. (this entire composition will be referred to as ‘de-glycosylation buffer’). […] The final volume for all the solutions was 80 μl/well. Assays were performed at 30° C. in solid black 384-well plates (Geiger Bio-One). Prior to beginning, Ni-NTA biosensors were soaked for 10 min in working buffer. Before loading the protein onto each biosensor, a baseline was established in working buffer for 60 s. Deglycosylated brevican (50 μg/ml BΔg; His-tagged) was loaded on the surface of each biosensors for 180 s. […] Reference biosensors were also included in the plate as internal controls, where biosensors were exposed to the ‘de-glycosylation buffer’ lacking brevican protein during the loading step. A 60 s biosensor washing step was applied. Then, biosensors were exposed to the analyte (peptide) in working buffer (ranging between 0-10 μM BTP) for 300 s during the ‘association’ step. Finally, the biosensors were exposed to working buffer (without peptide) during the ‘dissociation’ step for 600 s. Binding affinity of each peptide was assessed through steady state analysis, where the response unit was plotted over peptide concentration. All data was plotted and curves were fitted using the non-linear ‘one-site specific binding’ fit, and the dissociation constant (KD) value was calculated using the GraphPad Prism software.
Binding kinetics analyses were performed using the Octet RED platform (Forte Bio) to measure the binding affinity of BTP-7, 8 and 9 to purified recombinant BΔg protein.

HEK-Bcan cells [3] = assay: Flow cytometry cell uptake, HEK-Bcan versus regular HEK cells; format: cell-based, human; settings: Cy5.5-conjugated peptides, 5 μM
Method: as §1

GBM-6 cells = assay: Flow cytometry cell uptake in GBM-6 cells; format: cell-based, human; settings: Cy5.5-conjugated peptides; for uptake in GBM-6 cells at 4° C. compared to 37° C.: 5 μM, inhibition of endocytosis
Method: as §1

BTP-10: BΔg-targeting peptide of 8 D-amino acid residues from OBOC screen; sequence only in FIG. 3A ([dS][dH][dW][dA][dV][dN][dR][dF]; not fully specified)
uptake in HEK-Bcan cells in the presence of the blocking peptide (HEK-Bcan cells [1]): reduced uptake

CC[C@@H](C)[C@@H](NC(=O)[C@@H](C)NC(=O)[C@@H](CCCNC(=N)N)NC(=O)[C@@H](CCC(N)=O)NC(=O)[C@@H](CCCNC(=N)N)NC(=O)[C@@H](CCCNC(=N)N)NC(=O)[C@@H](CC(=O)O)NC(=O)[C@@H](C)N)C(N)=O [BTP-9] (H-[dA][dD][dR][dR][dQ][dR][dA][dI]-NH2; N-terminus and C-terminus assumed)
size of the difference in uptake between BT188 and BT145 GSCs (ranking) (BT188 glioma stem cells): largest and most significant difference
uptake in BT188 GSCs compared with BT145 GSCs (BT188 glioma stem cells): greater uptake
pKd [2]: 5.82
uptake in HEK-Bcan cells in the presence of the blocking peptide (HEK-Bcan cells [1]): reduced uptake

BTP-8-Cy5.5 ([dT][dI][dR][dK][dL][dV][dR][dH]-{Ahx-Pra(Cy5.5)-NH2})
uptake in HEK-Bcan cells compared with regular HEK cells (HEK-Bcan cells [3]): significantly higher
uptake in GBM-6 GSCs compared with astrocytes (GBM-6 cells): significantly higher
uptake in GBM-6 cells at 4° C. compared to 37° C. (GBM-6 cells): significantly reduced

BTP-9-Cy5.5 ([dA][dD][dR][dR][dQ][dR][dA][dI]-{Ahx-Pra(Cy5.5)-NH2})
uptake in HEK-Bcan cells compared with regular HEK cells (HEK-Bcan cells [3]): significantly higher
uptake in GBM-6 GSCs compared with astrocytes (GBM-6 cells): significantly higher
uptake in GBM-6 cells at 4° C. compared to 37° C. (GBM-6 cells): significantly reduced
